The source of these data is ChEMBL document CHEMBL1139273, “Aryl aminopyrazole benzamides as oral non-steroidal selective glucocorticoid receptor agonists” (Bioorg Med Chem Lett, 2009).

The structures appear in SMILES notation.

One data set concerns the target Cytochrome P450 3A4 (Homo sapiens, UniProt P08684).
The target in the next data set is Cytochrome P450 2C19 (Homo sapiens, UniProt P33261). The data set is described as follows: Inhibition of CYP2C19. The data set is classed as ADME.
Data set [1] is described as follows: Volume of distribution at steady state in Sprague-Dawley rat at 1 mg/kg, iv and 1 mg/kg, po. The conditions noted are these: in vivo, read-out: Vdss. The format is ADME, organism-based.
The target in the next data set is Cytochrome P450 2D6 (Homo sapiens, UniProt P10635). The data set is described as follows: Inhibition of CYP2D6. The data set is classed as ADME.
Cytochrome P450 2D6, sequence (P10635 whole entry): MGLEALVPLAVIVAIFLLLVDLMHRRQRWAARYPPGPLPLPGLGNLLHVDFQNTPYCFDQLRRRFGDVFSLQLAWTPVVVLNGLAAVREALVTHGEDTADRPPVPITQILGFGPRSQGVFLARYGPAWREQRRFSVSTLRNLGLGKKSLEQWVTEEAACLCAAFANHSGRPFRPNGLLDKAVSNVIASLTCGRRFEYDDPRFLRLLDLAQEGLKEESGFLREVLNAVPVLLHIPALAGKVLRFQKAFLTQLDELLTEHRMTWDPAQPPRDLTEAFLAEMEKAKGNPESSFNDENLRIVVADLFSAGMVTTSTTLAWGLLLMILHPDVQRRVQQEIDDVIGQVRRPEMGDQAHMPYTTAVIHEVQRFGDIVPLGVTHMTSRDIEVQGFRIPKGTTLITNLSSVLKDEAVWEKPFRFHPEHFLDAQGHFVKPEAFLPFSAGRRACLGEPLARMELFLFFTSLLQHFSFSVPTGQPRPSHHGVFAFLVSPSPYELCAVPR
In data set [2] the target is T1, Glucocorticoid receptor (Homo sapiens, UniProt P04150).
T1 sequence (P04150 whole entry): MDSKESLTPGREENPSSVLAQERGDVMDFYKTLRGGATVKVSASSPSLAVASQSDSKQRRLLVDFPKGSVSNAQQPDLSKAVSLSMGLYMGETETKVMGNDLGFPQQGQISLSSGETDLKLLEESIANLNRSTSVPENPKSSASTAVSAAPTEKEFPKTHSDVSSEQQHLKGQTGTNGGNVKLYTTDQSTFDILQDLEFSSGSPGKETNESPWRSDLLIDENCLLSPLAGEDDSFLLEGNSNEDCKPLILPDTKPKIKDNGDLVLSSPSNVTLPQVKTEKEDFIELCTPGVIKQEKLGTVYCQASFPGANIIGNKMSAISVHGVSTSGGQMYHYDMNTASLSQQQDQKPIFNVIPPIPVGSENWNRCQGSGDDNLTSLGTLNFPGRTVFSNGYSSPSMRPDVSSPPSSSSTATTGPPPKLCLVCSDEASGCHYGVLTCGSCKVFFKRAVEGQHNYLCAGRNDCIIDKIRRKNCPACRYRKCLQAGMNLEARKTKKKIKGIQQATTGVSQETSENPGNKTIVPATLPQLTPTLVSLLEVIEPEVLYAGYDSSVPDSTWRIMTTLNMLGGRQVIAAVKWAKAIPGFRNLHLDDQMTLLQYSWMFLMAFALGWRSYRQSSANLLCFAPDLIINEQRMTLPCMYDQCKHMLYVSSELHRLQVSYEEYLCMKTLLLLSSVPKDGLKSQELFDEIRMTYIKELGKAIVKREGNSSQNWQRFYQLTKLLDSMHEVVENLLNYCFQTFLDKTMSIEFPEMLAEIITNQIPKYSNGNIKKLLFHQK
Description: Agonist activity at human glucocorticoid receptor in human A549 cells assessed as transcriptional activity by MMTV luciferase reporter gene assay

In the next data set the target is T2, Cytochrome P450 1A2 (Homo sapiens, UniProt P05177).
T2 sequence (P05177 whole entry): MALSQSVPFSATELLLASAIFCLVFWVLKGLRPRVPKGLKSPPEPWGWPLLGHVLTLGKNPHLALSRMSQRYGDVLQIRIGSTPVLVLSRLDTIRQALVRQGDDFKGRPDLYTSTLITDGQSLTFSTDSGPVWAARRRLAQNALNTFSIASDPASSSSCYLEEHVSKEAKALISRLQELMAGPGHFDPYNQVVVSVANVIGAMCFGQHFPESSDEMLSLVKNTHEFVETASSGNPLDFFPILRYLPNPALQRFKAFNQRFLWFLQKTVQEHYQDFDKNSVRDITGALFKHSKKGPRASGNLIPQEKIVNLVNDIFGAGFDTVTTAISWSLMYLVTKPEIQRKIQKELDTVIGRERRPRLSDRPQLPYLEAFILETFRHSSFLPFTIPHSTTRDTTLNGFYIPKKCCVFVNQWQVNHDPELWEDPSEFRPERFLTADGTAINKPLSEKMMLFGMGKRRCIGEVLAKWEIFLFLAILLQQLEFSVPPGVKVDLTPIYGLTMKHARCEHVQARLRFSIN
The data set is described as follows: Inhibition of CYP1A2. The data set is classed as ADME.

Data set [3] in a line: Protein binding in human plasma by ultrafiltration. The data set is classed as ADME, cell-free. The conditions noted are these: read-out: PPB (converted).
Another data set deals with Cytochrome P450 2C9 (Homo sapiens, UniProt P11712). The data set is described as follows: Inhibition of CYP2C9. The format is ADME.
Cytochrome P450 2C9, sequence (P11712 whole entry): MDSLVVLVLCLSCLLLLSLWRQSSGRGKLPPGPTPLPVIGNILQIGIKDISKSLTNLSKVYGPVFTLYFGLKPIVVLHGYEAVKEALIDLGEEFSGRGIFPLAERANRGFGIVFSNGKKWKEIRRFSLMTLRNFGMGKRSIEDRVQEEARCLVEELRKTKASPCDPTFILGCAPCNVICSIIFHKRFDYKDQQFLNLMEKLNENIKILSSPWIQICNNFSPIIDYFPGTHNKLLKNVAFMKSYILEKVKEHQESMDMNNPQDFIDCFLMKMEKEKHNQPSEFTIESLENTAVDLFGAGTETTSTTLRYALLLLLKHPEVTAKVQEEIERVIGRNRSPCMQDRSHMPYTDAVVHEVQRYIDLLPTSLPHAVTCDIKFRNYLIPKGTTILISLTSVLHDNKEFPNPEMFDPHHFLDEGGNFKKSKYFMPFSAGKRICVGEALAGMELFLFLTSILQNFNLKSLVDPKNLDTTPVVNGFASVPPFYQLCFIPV
Another data set has as its target Albumin (Homo sapiens, UniProt P02768). The data set is described as follows: Binding affinity to human serum albumin by fast gradient HPLC. The data set is classed as ADME. The conditions noted are these: isolated protein.
A further data set concerns A549. The data set is described as follows: Inhibition of TNF-induced NFkappaB activation in human A549 cells after 15 hrs relative to Dexamethasone. The format is cell-based. Set-up: scale not given: the % may be the effect or the level left.
Data set [4] concerns the target T1, Glucocorticoid receptor. The source holds these as a separate data set.
Description: Displacement of fluorescent labelled Dexamethasone from glucocorticoid receptor
The nature of data set [5]: Oral bioavailability in Sprague-Dawley rat at 1 mg/kg. The data set is classed as ADME, organism-based. The conditions noted are these: in vivo.
Data set [6] can be described thus: Inhibition of TNF-induced NF-kappaB activation in human A549 cells after 15 hrs. The conditions noted are these: Homo sapiens, A549, 15 h, read-out: pIC50 (converted).
A short description of data set [7]: Clearance in Sprague-Dawley rat at 1 mg/kg, iv and 1 mg/kg, po. The format is ADME, organism-based. The conditions noted are these: in vivo.

Cytochrome P450 2C19, sequence (P33261 whole entry): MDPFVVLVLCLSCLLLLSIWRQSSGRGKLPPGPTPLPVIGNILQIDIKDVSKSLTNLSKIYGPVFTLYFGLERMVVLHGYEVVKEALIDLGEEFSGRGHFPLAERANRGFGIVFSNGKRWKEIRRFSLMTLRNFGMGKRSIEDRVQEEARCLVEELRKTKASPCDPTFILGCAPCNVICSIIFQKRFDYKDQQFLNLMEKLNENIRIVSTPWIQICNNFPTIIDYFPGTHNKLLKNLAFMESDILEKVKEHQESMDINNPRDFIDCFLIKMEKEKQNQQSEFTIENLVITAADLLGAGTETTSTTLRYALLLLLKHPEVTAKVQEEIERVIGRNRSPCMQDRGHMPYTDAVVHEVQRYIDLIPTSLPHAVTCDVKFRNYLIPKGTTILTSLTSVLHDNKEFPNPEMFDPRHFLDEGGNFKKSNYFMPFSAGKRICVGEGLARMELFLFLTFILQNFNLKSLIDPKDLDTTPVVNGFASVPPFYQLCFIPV
Albumin, sequence (P02768 whole entry): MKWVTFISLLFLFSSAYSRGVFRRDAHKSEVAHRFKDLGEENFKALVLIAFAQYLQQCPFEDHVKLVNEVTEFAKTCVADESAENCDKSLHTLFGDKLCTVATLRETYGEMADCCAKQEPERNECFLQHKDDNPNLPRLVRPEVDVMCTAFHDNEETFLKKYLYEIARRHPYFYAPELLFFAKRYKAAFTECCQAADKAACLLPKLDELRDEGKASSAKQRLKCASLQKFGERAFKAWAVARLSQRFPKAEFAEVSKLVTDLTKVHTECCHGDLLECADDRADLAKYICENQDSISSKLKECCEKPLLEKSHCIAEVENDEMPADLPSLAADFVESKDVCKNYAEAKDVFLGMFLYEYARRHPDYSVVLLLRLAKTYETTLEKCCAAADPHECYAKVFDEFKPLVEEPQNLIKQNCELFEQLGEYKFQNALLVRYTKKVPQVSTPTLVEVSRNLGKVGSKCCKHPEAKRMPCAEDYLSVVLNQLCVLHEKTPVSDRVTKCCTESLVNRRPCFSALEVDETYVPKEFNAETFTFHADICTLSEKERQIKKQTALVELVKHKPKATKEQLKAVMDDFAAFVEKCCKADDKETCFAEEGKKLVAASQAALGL
Cytochrome P450 3A4, sequence (P08684 whole entry): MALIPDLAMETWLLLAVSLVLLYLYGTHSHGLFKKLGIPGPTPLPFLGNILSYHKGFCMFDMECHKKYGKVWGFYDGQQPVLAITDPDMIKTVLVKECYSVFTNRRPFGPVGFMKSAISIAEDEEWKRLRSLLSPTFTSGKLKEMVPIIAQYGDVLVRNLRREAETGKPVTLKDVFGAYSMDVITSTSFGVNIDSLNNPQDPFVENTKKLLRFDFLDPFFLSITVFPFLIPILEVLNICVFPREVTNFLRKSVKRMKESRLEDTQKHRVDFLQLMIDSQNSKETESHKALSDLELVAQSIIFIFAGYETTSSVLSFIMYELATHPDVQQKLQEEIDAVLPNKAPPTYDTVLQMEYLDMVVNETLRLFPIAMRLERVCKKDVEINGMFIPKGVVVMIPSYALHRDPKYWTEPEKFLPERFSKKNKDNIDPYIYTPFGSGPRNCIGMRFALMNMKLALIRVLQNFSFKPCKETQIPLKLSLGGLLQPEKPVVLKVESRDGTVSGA

What is called EC50 is the concentration that produces a half-maximal response. A word on the bioavailability: it is dose-corrected exposure relative to a reference, in per cent. Take `Nc1c(C(=O)NCC(O)(CN(CCF)C(=O)c2c(F)cccc2F)C(F)(F)F)cnn1-c1ccc(F)cc1` (racemic): the IC50 against Cytochrome P450 3A4 was 0.5 µM; against Cytochrome P450 2C19, 8 µM; at Cytochrome P450 2D6, 20 µM; against Cytochrome P450 1A2 it was 100 µM; on Cytochrome P450 2C9 it was 4 µM; at Glucocorticoid receptor [4], 0.02 µM. The IC50 in data set [6] was 0.01 µM. Besides, the Vd in data set [1] came to 2.6 L/kg. The same molecule gave a concentration for a half-maximal effect (EC50) at Glucocorticoid receptor [2] of 0.0501 µM. Further, the fraction unbound in [3] is 0.07. In addition, the Activity on Albumin came out at 93%; with A549 it was 94%. In [5], this molecule showed a bioavailability of 39%. Besides, the clearance in [7] came out at 21 mL/min/kg.

For the molecule `Nc1c(C(=O)NCC(O)(CN(CCO)C(=O)c2c(Cl)cccc2Cl)C(F)(F)F)cnn1-c1ccc(F)cc1` (stereo not drawn), the IC50 against Cytochrome P450 3A4 is 100 µM; against Cytochrome P450 2C19 it was 20 µM; on Cytochrome P450 2D6, 54 µM; on Cytochrome P450 1A2, 100 µM; at Cytochrome P450 2C9, 3 µM. Moreover, the fraction unbound in data set [3] was 0.07. On Albumin, this molecule displayed an Activity of 89%.

In the case of `Nc1c(C(=O)NCC(O)(CN(CCO)C(=O)c2c(F)cccc2F)C(F)(F)F)cnn1-c1ccc(F)cc1` (stereo not drawn), the IC50 at Cytochrome P450 3A4 is 76 µM; against Cytochrome P450 2C19, 40 µM; on Cytochrome P450 2D6, 100 µM; on Cytochrome P450 1A2, 100 µM; on Cytochrome P450 2C9 it was 13 µM; on Glucocorticoid receptor [4] it was 0.0158 µM. The IC50 in data set [6] was 0.02 µM. In addition, in data set [1], the Vd came to 0.9 L/kg. At Glucocorticoid receptor [2], this molecule gave a concentration for a half-maximal effect (EC50) of 0.0501 µM. Further, the fraction unbound in data set [3] is 0.32. In addition, the values for the Activity at Albumin and with A549 were 81% and 94%, respectively. This molecule also returned a bioavailability in data set [5] of 44%. In data set [7], the clearance came out at 8 mL/min/kg.

Consider `CCN(CC(O)(CNC(=O)c1cnn(-c2ccc(F)cc2)c1N)C(F)(F)F)C(=O)c1ncccc1Cl` (stereo not drawn), for which the IC50 is 4 µM on Cytochrome P450 3A4; 100 µM against Cytochrome P450 2C19; 100 µM against Cytochrome P450 2D6; 100 µM on Cytochrome P450 1A2; 14 µM at Cytochrome P450 2C9; 0.01 µM in [6]. Moreover, the fraction unbound in [3] was 0.15. Moreover, the Activity on Albumin is on record as 83%.

Regarding `CCN(CC(O)(CNC(=O)c1cnn(-c2ccc(F)cc2)c1N)C(F)(F)F)C(=O)c1c(Cl)cccc1Cl` (stereo not drawn), the IC50 at Cytochrome P450 3A4 is 0.7 µM; at Cytochrome P450 2C19, 7 µM; on Cytochrome P450 2D6, 89 µM; against Cytochrome P450 1A2, 100 µM; against Cytochrome P450 2C9, 0.8 µM; against Glucocorticoid receptor [4] it was 0.00316 µM. Moreover, the IC50 in data set [6] is 0.000501 µM. Besides, the EC50 on Glucocorticoid receptor [2] was 0.002 µM. Moreover, in data set [3], the fraction unbound is 0.01. Also, the Activity on Albumin turned out to be 95%; with A549, 101%.

In the case of `CCN(CC(O)(CNC(=O)c1cnn(-c2ccc(F)cc2)c1N)C(F)(F)F)C(=O)c1c(F)cccc1F` (stereo not drawn), the IC50 was 2 µM at Cytochrome P450 3A4; 18 µM against Cytochrome P450 2C19; 74 µM on Cytochrome P450 2D6; 100 µM against Cytochrome P450 1A2; 8 µM against Cytochrome P450 2C9; 0.00794 µM against Glucocorticoid receptor [4]. Further, the IC50 in [6] is 0.00251 µM. The Vd in data set [1] came out at 2.8 L/kg. In addition, on Glucocorticoid receptor [2], the concentration giving a half-maximal response (EC50) was 0.00794 µM. For the same molecule, the fraction unbound in [3] was 0.03. Further, the Activity at Albumin was found to be 93%; in the data set on A549, 104%. Moreover, the bioavailability in data set [5] was determined as 36%. This molecule also registered a clearance in data set [7] of 27 mL/min/kg.
